Assays:
[1] = test system: Mycobacterium tuberculosis Erdman (autoluminescent); test: total FIC50 (Loewe) at 50% inhibition, three-drug combination (log2); higher = more antagonistic
Experimental: (§1)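 DiaMOND equipotent three-drug combination dose responses (10 doses, 1.5- or 2-fold spacing, centred on IC90) against autoluminescent M. tuberculosis Erdman in 8 in vitro models. Read-out is OD600, or luminescence for the intracellular and dormancy models, normalised to untreated wells. Hill-fit Einf, AUC25 and GRinf are potency metrics; FIC50 and FIC90 are total Loewe fractional inhibitory concentrations as log2 (negative = synergy).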

[2] = test system: Mycobacterium tuberculosis Erdman (autoluminescent); test: total FIC90 (Loewe) at 90% inhibition, three-drug combination (log2); higher = more antagonistic
Experimental: as §1

[3] = test system: Mycobacterium tuberculosis Erdman (autoluminescent); test: Einf, fitted maximum growth inhibition of three-drug combination (fraction); higher = stronger maximal inhibition
Experimental: as §1

[4] = test system: Mycobacterium tuberculosis Erdman (autoluminescent); test: AUC25, normalised area under dose response up to IC25 (three-drug combination) (fraction (0-1)); higher = more potent at low dose
Experimental: as §1

[5] = test system: Mycobacterium tuberculosis Erdman (autoluminescent); test: GRinf, maximum normalised growth rate inhibition (three-drug combination) (unitless (-1 to 1)); higher = less effect (negative = killing)
Experimental: as §1

COc1nc2ccc(Br)cc2cc1[C@@H](c1ccccc1)[C@@](O)(CCN(C)C)c1cccc2ccccc12 [bedaquiline] + CC(C)/N=c1\cc2n(-c3ccc(Cl)cc3)c3ccccc3nc-2cc1Nc1ccc(Cl)cc1 [clofazimine] + CC[C@@H](CO)NCCN[C@@H](CC)CO [ethambutol]
Settings	AUC25, [4]	Einf, [3]	GRinf, [5]	total FIC50, [1]	total FIC90, [2]
in vitro model: acidic pH 5.7, time point: constant (~7 days, model-specific)	0.0844	0.852	-0.216	0.516	–
in vitro model: acidic pH 5.7, time point: terminal (~4-5 doublings, model-specific)	0.0687	0.969	-0.273	0.534	0.129
in vitro model: intracellular J774, time point: constant = terminal	–	0.992	-0.72	–	-0.364

Settings	AUC25, [4]	Einf, [3]	GRinf, [5]	total FIC50, [1]	total FIC90, [2]
in vitro model: butyrate, time point: constant (~7 days, model-specific)	0.0618	0.945	-0.0931	0.078	–
in vitro model: butyrate, time point: terminal (~4-5 doublings, model-specific)	0.0476	0.976	-0.104	0.111	-0.667
in vitro model: cholesterol 0.05 mM, time point: constant (~7 days, model-specific)	0.0892	0.762	-0.109	0.0426	–
in vitro model: cholesterol 0.05 mM, time point: terminal (~4-5 doublings, model-specific)	0.117	0.937	-0.32	0.424	–
in vitro model: cholesterol-high 0.2 mM, time point: constant (~7 days, model-specific)	0.0568	0.996	-0.788	0.329	–
in vitro model: cholesterol-high 0.2 mM, time point: terminal (~4-5 doublings, model-specific)	0.0708	1	-0.736	0.543	0.542
in vitro model: dormancy (butyrate + nitrate, low O2), time point: constant (~7 days, model-specific)	0.102	0.82	0.429	0.788	–
in vitro model: dormancy (butyrate + nitrate, low O2), time point: terminal (~4-5 doublings, model-specific)	0.0994	0.991	-0.239	0.238	0.0433
in vitro model: standard 7H9 glycerol, time point: constant = terminal	0.0939	0.965	-0.0889	-0.254	–
in vitro model: valerate, time point: constant (~7 days, model-specific)	0.107	0.947	-0.0899	0.469	–
in vitro model: valerate, time point: terminal (~4-5 doublings, model-specific)	0.0804	0.962	-0.0795	0.16	-0.225

COc1nc2ccc(Br)cc2cc1[C@@H](c1ccccc1)[C@@](O)(CCN(C)C)c1cccc2ccccc12 [bedaquiline] + CC(C)/N=c1\cc2n(-c3ccc(Cl)cc3)c3ccccc3nc-2cc1Nc1ccc(Cl)cc1 [clofazimine] + CO[C@H]1/C=C/O[C@@]2(C)Oc3c(C)c(O)c4c(O)c(c(/C=N/N5CCN(C6CCCC6)CC5)c(O)c4c3C2=O)NC(=O)/C(C)=C\C=C\[C@H](C)[C@H](O)[C@@H](C)[C@@H](O)[C@@H](C)[C@H](OC(C)=O)[C@@H]1C [rifapentine]
Settings	AUC25, [4]	Einf, [3]	GRinf, [5]	total FIC50, [1]	total FIC90, [2]
in vitro model: acidic pH 5.7, time point: constant (~7 days, model-specific)	0.0909	0.924	-0.309	0.793	–
in vitro model: acidic pH 5.7, time point: terminal (~4-5 doublings, model-specific)	0.0906	0.997	-0.284	0.66	0.55
in vitro model: intracellular J774, time point: constant = terminal	–	0.951	-0.199	–	-0.0198

Settings	AUC25, [4]	Einf, [3]	GRinf, [5]	total FIC50, [1]	total FIC90, [2]
in vitro model: butyrate, time point: constant (~7 days, model-specific)	0.0667	0.948	-0.116	0.174	-0.813
in vitro model: butyrate, time point: terminal (~4-5 doublings, model-specific)	0.0586	0.983	-0.124	0.264	-0.221
in vitro model: cholesterol 0.05 mM, time point: constant (~7 days, model-specific)	0.0889	0.716	-0.179	-0.467	–
in vitro model: cholesterol 0.05 mM, time point: terminal (~4-5 doublings, model-specific)	0.085	0.926	-0.231	0.869	-0.165
in vitro model: cholesterol-high 0.2 mM, time point: constant (~7 days, model-specific)	0.0509	0.965	-0.378	-0.0878	-0.883
in vitro model: cholesterol-high 0.2 mM, time point: terminal (~4-5 doublings, model-specific)	0.0654	1	-0.595	0.507	-0.0793
in vitro model: dormancy (butyrate + nitrate, low O2), time point: constant (~7 days, model-specific)	0.0857	0.937	0.218	-0.0609	-0.282
in vitro model: dormancy (butyrate + nitrate, low O2), time point: terminal (~4-5 doublings, model-specific)	0.0766	0.997	-0.206	-0.242	-0.206
in vitro model: standard 7H9 glycerol, time point: constant = terminal	0.079	0.959	-0.0819	-0.0863	-0.842
in vitro model: valerate, time point: constant (~7 days, model-specific)	0.0956	0.895	-0.0953	0.292	–
in vitro model: valerate, time point: terminal (~4-5 doublings, model-specific)	0.0686	0.95	-0.0333	0.461	0.966

COc1nc2ccc(Br)cc2cc1[C@@H](c1ccccc1)[C@@](O)(CCN(C)C)c1cccc2ccccc12 [bedaquiline] + CC(C)/N=c1\cc2n(-c3ccc(Cl)cc3)c3ccccc3nc-2cc1Nc1ccc(Cl)cc1 [clofazimine] + CO[C@H]1/C=C/O[C@@]2(C)Oc3c(C)c(O)c4c(O)c(c(/C=N/N5CCN(C)CC5)c(O)c4c3C2=O)NC(=O)/C(C)=C\C=C\[C@H](C)[C@H](O)[C@@H](C)[C@@H](O)[C@@H](C)[C@H](OC(C)=O)[C@@H]1C [rifampicin]
Settings	AUC25, [4]	Einf, [3]	GRinf, [5]	total FIC50, [1]	total FIC90, [2]
in vitro model: acidic pH 5.7, time point: constant (~7 days, model-specific)	0.0895	0.926	-0.41	0.927	–
in vitro model: acidic pH 5.7, time point: terminal (~4-5 doublings, model-specific)	0.0837	0.992	-0.332	0.816	0.52
in vitro model: intracellular J774, time point: constant = terminal	–	0.965	-0.213	–	0.287

Settings	AUC25, [4]	Einf, [3]	GRinf, [5]	total FIC50, [1]	total FIC90, [2]
in vitro model: butyrate, time point: constant (~7 days, model-specific)	0.0821	0.954	-0.113	0.164	-0.692
in vitro model: butyrate, time point: terminal (~4-5 doublings, model-specific)	0.0695	0.983	-0.115	0.163	-0.325
in vitro model: cholesterol 0.05 mM, time point: constant (~7 days, model-specific)	0.0702	0.714	-0.146	-0.919	–
in vitro model: cholesterol 0.05 mM, time point: terminal (~4-5 doublings, model-specific)	0.0755	0.925	-0.226	0.904	-0.861
in vitro model: cholesterol-high 0.2 mM, time point: constant (~7 days, model-specific)	0.0563	0.933	-0.277	-0.143	-0.728
in vitro model: cholesterol-high 0.2 mM, time point: terminal (~4-5 doublings, model-specific)	0.0498	0.999	-0.582	0.757	-0.216
in vitro model: dormancy (butyrate + nitrate, low O2), time point: constant (~7 days, model-specific)	0.0659	0.906	0.222	-0.0697	-0.643
in vitro model: dormancy (butyrate + nitrate, low O2), time point: terminal (~4-5 doublings, model-specific)	0.0651	0.994	-0.191	-0.41	-0.344
in vitro model: standard 7H9 glycerol, time point: constant = terminal	0.0883	0.959	-0.1	-0.172	-1.01
in vitro model: valerate, time point: constant (~7 days, model-specific)	0.0872	0.88	-0.0295	0.776	–
in vitro model: valerate, time point: terminal (~4-5 doublings, model-specific)	0.0594	0.936	-0.0101	0.627	0.54

— the supplement of paper PMC8617591
